{"source": "the RepoRT retention time repository", "assay": "HILIC, Waters Atlantis Premier BEH Z-HILIC, 100 × 2.1 mm, 1.7 µm, 40 °C, 0.15 mL/min, estimated dead time 1.5 min; A: water + 20 mM ammonium carbonate + 5 µM medronic acid; B: 10% water + 90% acetonitrile + 2 mM ammonium carbonate + 0.5 µM medronic acid; gradient (min/%B) 0/95 18/60 18.1/20 21.5/20 22/95 23.5/95 25.5/95", "details": "stereoisomer not certain", "data": [{"compound": "Nc1ncnc2c1ncn2C1OC(COP(=O)(O)O)C(O)C1O", "note": "(stereo not given) [AMP]", "values": [{"measurement": "LC retention time", "result": 9.98, "unit": "min"}]}, {"compound": "NC(=O)c1ccc[n+](C2OC(COP(=O)(O)OP(=O)(O)OCC3OC(n4cnc5c(N)ncnc54)C(O)C3O)C(O)C2O)c1", "note": "(stereo not given) [NAD]", "values": [{"measurement": "LC retention time", "result": 10.9, "unit": "min"}]}, {"compound": "NC(=O)C1=CN(C2OC(COP(=O)(O)OP(=O)(O)OCC3OC(n4cnc5c(N)ncnc54)C(O)C3O)C(O)C2O)C=CC1", "note": "(stereo not given) [NADH]", "values": [{"measurement": "LC retention time", "result": 9.07, "unit": "min"}]}, {"compound": "Nc1ncnc2c1ncn2C1OC(COP(=O)(O)OP(=O)(O)O)C(O)C1O", "note": "(stereo not given) [ADP]", "values": [{"measurement": "LC retention time", "result": 12.2, "unit": "min"}]}, {"compound": "Nc1nc2c(ncn2C2OC(COP(=O)(O)OP(=O)(O)OP(=O)(O)O)C(O)C2O)c(=O)[nH]1", "note": "(stereo not given) [GTP]", "values": [{"measurement": "LC retention time", "result": 17.2, "unit": "min"}]}, {"compound": "O=C(O)CC(C(=O)O)C(O)C(=O)O", "note": "(stereo not given) [Isocitric acid]", "values": [{"measurement": "LC retention time", "result": 14.6, "unit": "min"}]}, {"compound": "NC(=O)c1ccc[n+](C2OC(COP(=O)(O)OP(=O)(O)OCC3OC(n4cnc5c(N)ncnc54)C(OP(=O)(O)O)C3O)C(O)C2O)c1", "note": "(stereo not given) [NADP]", "values": [{"measurement": "LC retention time", "result": 14.4, "unit": "min"}]}, {"compound": "O=C(O)CCC(=O)O", "note": "[Succinic Acid]", "values": [{"measurement": "LC retention time", "result": 10.1, "unit": "min"}]}, {"compound": "NC(CCC(=O)O)C(=O)O", "note": "(stereo not given) [Glutamic acid]", "values": [{"measurement": "LC retention time", "result": 10.3, "unit": "min"}]}, {"compound": "Nc1ncnc2c1ncn2C1OC(CO)C(O)C1O", "note": "(stereo not given) [Adenosine]", "values": [{"measurement": "LC retention time", "result": 4.12, "unit": "min"}]}, {"compound": "O=C(CO)C(O)C(O)C(O)COP(=O)(O)O", "note": "(stereo not given) [Fructose 6-phosphate]", "values": [{"measurement": "LC retention time", "result": 12.2, "unit": "min"}]}, {"compound": "O=C(O)CCCCC1SCC2NC(=O)NC21", "note": "(stereo not given) [Biotin]", "values": [{"measurement": "LC retention time", "result": 4.54, "unit": "min"}]}, {"compound": "CC(C)(COP(=O)(O)OP(=O)(O)OCC1OC(n2cnc3c(N)ncnc32)C(O)C1OP(=O)(O)O)C(O)C(=O)NCCC(=O)NCCS", "note": "(stereo not given) [CoenzymeA]", "values": [{"measurement": "LC retention time", "result": 12.9, "unit": "min"}]}, {"compound": "O=P(O)(O)OCC(O)CO", "note": "(stereo not given) [Glycerol-3-phosphate]", "values": [{"measurement": "LC retention time", "result": 10.9, "unit": "min"}]}, {"compound": "O=C(O)CC(O)(CC(=O)O)C(=O)O", "note": "[Citric acid]", "values": [{"measurement": "LC retention time", "result": 14.8, "unit": "min"}]}, {"compound": "O=C(O)CCC(=O)C(=O)O", "note": "[2-Oxoglutaric acid]", "values": [{"measurement": "LC retention time", "result": 9.44, "unit": "min"}]}, {"compound": "O=C1CC(C(=O)O)NC(=O)N1", "note": "(stereo not given) [dihydroorotic acid]", "values": [{"measurement": "LC retention time", "result": 4.65, "unit": "min"}]}, {"compound": "CC(=O)SCCNC(=O)CCNC(=O)C(O)C(C)(C)COP(=O)(O)OP(=O)(O)OCC1OC(n2cnc3c(N)ncnc32)C(O)C1OP(=O)(O)O", "note": "(stereo not given) [Acetyl-CoA]", "values": [{"measurement": "LC retention time", "result": 10.9, "unit": "min"}]}, {"compound": "CC(=O)NC1C(OP(=O)(O)OP(=O)(O)OCC2OC(n3ccc(=O)[nH]c3=O)C(O)C2O)OC(CO)C(O)C1O", "note": "(stereo not given) [UDP-GlcNAc]", "values": [{"measurement": "LC retention time", "result": 10.5, "unit": "min"}]}, {"compound": "O=C(CO)COP(=O)(O)O", "note": "[Triose phosphate]", "values": [{"measurement": "LC retention time", "result": 10.8, "unit": "min"}]}, {"compound": "O=P(O)(O)OCC1OC(O)(COP(=O)(O)O)C(O)C1O", "note": "(stereo not given) [Fructose-1,6-bisphosphate]", "values": [{"measurement": "LC retention time", "result": 16.9, "unit": "min"}]}, {"compound": "OCC1OC(O)C(O)C(O)C1O", "note": "(stereo not given) [Hexose]", "values": [{"measurement": "LC retention time", "result": 7.88, "unit": "min"}]}, {"compound": "NC(=O)C1=CN(C2OC(COP(=O)(O)OP(=O)(O)OCC3OC(n4cnc5c(N)ncnc54)C(OP(=O)(O)O)C3O)C(O)C2O)C=CC1", "note": "(stereo not given) [NADPH]", "values": [{"measurement": "LC retention time", "result": 15, "unit": "min"}]}, {"compound": "NC(=O)CCC(N)C(=O)O", "note": "(stereo not given) [Glutamine]", "values": [{"measurement": "LC retention time", "result": 11, "unit": "min"}]}, {"compound": "C=C(OP(=O)(O)O)C(=O)O", "note": "[PEP]", "values": [{"measurement": "LC retention time", "result": 14.4, "unit": "min"}]}, {"compound": "CC(O)C(=O)O", "note": "(stereo not given) [Lactic Acid]", "values": [{"measurement": "LC retention time", "result": 3.43, "unit": "min"}]}, {"compound": "O=P(O)(O)OCC1OC(O)C(O)C(O)C1O", "note": "(stereo not given) [Glucose-6-phosphate]", "values": [{"measurement": "LC retention time", "result": 13.3, "unit": "min"}]}, {"compound": "O=C(O)C(CO)OP(=O)(O)O", "note": "(stereo not given) [Phosphoglyceric acid A]", "values": [{"measurement": "LC retention time", "result": 13.4, "unit": "min"}]}, {"compound": "CC(C)CC(N)C(=O)O", "note": "(stereo not given) [Leucine]", "values": [{"measurement": "LC retention time", "result": 6.18, "unit": "min"}]}, {"compound": "CCC(C)C(N)C(=O)O", "note": "(stereo not given) [Isoleucine]", "values": [{"measurement": "LC retention time", "result": 6.62, "unit": "min"}]}, {"compound": "O=C(O)CCC(O)C(=O)O", "note": "(stereo not given) [2-hydroxy glutaric acid]", "values": [{"measurement": "LC retention time", "result": 10, "unit": "min"}]}, {"compound": "C[N+](C)(C)CC(O)CC(=O)[O-]", "note": "(stereo not given) [Carnitine]", "values": [{"measurement": "LC retention time", "result": 10.4, "unit": "min"}]}, {"compound": "Nc1ncnc2c1ncn2C1OC(COP(=O)(O)OP(=O)(O)OP(=O)(O)O)C(O)C1O", "note": "(stereo not given) [ATP]", "values": [{"measurement": "LC retention time", "result": 14.3, "unit": "min"}]}, {"compound": "CCC(=O)OC(CC(=O)[O-])C[N+](C)(C)C", "note": "(stereo not given) [carnitine-C3]", "values": [{"measurement": "LC retention time", "result": 6.75, "unit": "min"}]}, {"compound": "Cc1cc2nc3c(=O)[nH]c(=O)nc-3n(CC(O)C(O)C(O)COP(=O)(O)OP(=O)(O)OCC3OC(n4cnc5c(N)ncnc54)C(O)C3O)c2cc1C", "note": "(stereo not given) [FAD]", "values": [{"measurement": "LC retention time", "result": 7.66, "unit": "min"}]}]}
